{"source": "patent US20070172957A1", "about": "“Methods of identifying anti-inflammatory macrolides” (TAISHO PHARMACEUTICAL CO., LTD., priority 2004, published 2007)", "tested_on": "A549 cells", "test": "A549 microarray comparing macrolides with arachidonic acid pathway inhibitors, with IL-1β stimulation (Appendix C, Tables 6-9), and correlation analysis", "type": "cell-based", "settings": "for Total # Differential Genes (95% confidence): A549, IL1 vs IL1 + drug, threshold 1.3, macrolides 50 μM (FMA 10 μM), triacsin C 15 μM, indomethacin and dexamethasone 100 nM; for FADS1 expression: microarray", "text": "One inhibitor, triacsin C, acts on AA biosynthesis by inhibiting arachidonyl CoA synthetases, blocking the incorporation of free AA into phospholipids. Triacsin C is reasonably specific for AA compared to other fatty acids. However, triacsin C structurally resembles AA so it also may interfere with other steps in the AA pathway. Indomethacin is an inhibitor of COX1 and COX2 enzyme activities and therefore specifically blocks metabolism of AA into prostaglandins. […] It inhibits transcription of PLA2, and transcriptionally and post-transcriptionally regulates COX1 and COX2 activities. Dexamethasone has additional effects unrelated to AA through binding with the glucocorticoid receptor to glucocortcoid response elements.\nA549 cells were pre-incubated overnight (17 hours) with macrolides (10 μM FMA-9045, 50 μM clarithromycin, 50 μM roxithromycin, 50 μM josamycin) and 15 μM triacsin C, and pre-incubated 2 hours with 100 nM indomethacin and 100 nM dexamethasone. All cells then were stimulated for 4 hours with IL-1β, because the activation of PLA2 and downstream signaling events generally requires an inflammatory stimulus. The various treatment conditions are shown below in Table 4. Following macrolide and inhibitor pre-treatment and IL-1 stimulation, the cells were lysed, total RNA was collected, and the poly-A+ mRNA fraction was purified. The resulting microarray data (Appendix C) were analyzed using the methods described in the Examples above.\nThe tables in Appendix C represent the effects of the arachidonic acid pathway inhibitors (“AA pathway inhibitors”) and the effects of the macrolides (“IL1+macrolide effects”). […] In both tables in Appendix C, the genes that meet this criterion (≧1.3 min fold change) are indicated in bold.\nQuantitative analysis was done to determine how well the responses to the different AA pathway inhibitors correlated. The correlation values were assigned a p-value to provide statistical confidence to the correlation value. Correlation between experiments, across all spots showing good detection, was assessed by cosine vector angle to generate the data shown in Tables 7-9. A correlation coefficient close to one indicates strong correlation, whereas a value near zero indicates no correlation. P-values for each correlation coefficient were estimated based on a Fisher permutation test. In this test, each spot's expression ratios were randomly re-ordered across experiments and the degree of correlation between experiments was then reassessed. This was done repeatedly.", "key": {"[1]": {"settings": "A549 cells, +IL1b +/- inhibitor"}}, "data": [{"smiles": "COc1ccc2c(c1)c(CC(=O)O)c(C)n2C(=O)c1ccc(Cl)cc1", "note": "[indomethacin]", "values": [{"measurement": "Number of differentially expressed genes also differential in response to triacsin C", "setting": "A549 + IL-1β, of the genes regulated by the labelled drug", "result": 36}, {"measurement": "Total # Differential Genes (95% confidence)", "result": 37}, {"measurement": "min fold change, SpotID 46796 STC1 (stanniocalcin 1)", "setting": "[1]", "result": 1.34}, {"measurement": "min fold change, SpotID 46950 SERPINA3 (serine (or cysteine) proteinase inhibitor, clade A, member 3)", "setting": "[1]", "result": 1.28}, {"measurement": "min fold change, SpotID 46985 RIPK2 (RIP2, RICK; receptor-interacting serine-threonine kinase 2)", "setting": "[1]", "result": 1.85}, {"measurement": "min fold change, SpotID 47155 TNFAIP6 (tumor necrosis factor, alpha-induced protein 6)", "setting": "[1]", "result": 1.17}, {"measurement": "min fold change, SpotID 47166 SERPINA6 (serine (or cysteine) proteinase inhibitor, clade A, member 6)", "setting": "[1]", "result": 1.05}, {"measurement": "min fold change, SpotID 47193 STAT3 (signal transducer and activator of transcription 3)", "setting": "[1]", "result": 1.25}, {"measurement": "min fold change, SpotID 47332 SERPINB3 (serine (or cysteine) proteinase inhibitor, clade B (ovalbumin), member 3)", "setting": "[1]", "result": 1.25}, {"measurement": "min fold change, SpotID 47444 TKT (transketolase (Wernicke-Korsakoff syndrome))", "setting": "[1]", "result": 1.00}, {"measurement": "min fold change, SpotID 47569 STAT3 (signal transducer and activator of transcription 3)", "setting": "[1]", "result": 1.69}, {"measurement": "min fold change, SpotID 47697 TNFRSF6B (DcR3; tumor necrosis factor receptor superfamily, member 6b, decoy)", "setting": "[1]", "result": 1.52}, {"measurement": "min fold change, SpotID 47698 PTPRJ (protein tyrosine phosphatase, receptor type, J)", "setting": "[1]", "result": 1.31}, {"measurement": "min fold change, SpotID 47987 THBS1 (thrombospondin 1)", "setting": "[1]", "result": 1.32}, {"measurement": "min fold change, SpotID 48050 RPS6KA2 (ribosomal protein S6 kinase, 90 kD, polypeptide 2)", "setting": "[1]", "result": 1.00}, {"measurement": "min fold change, SpotID 48234 PTPRZ1 (PTP zeta; protein tyrosine phosphatase, receptor-type, Z polypeptide 1)", "setting": "[1]", "result": 1.48}, {"measurement": "min fold change, SpotID 48239 TLN1 (talin 1)", "setting": "[1]", "result": 1.51}, {"measurement": "min fold change, SpotID 48288 TRAF5 (TNF receptor-associated factor 5)", "setting": "[1]", "result": 1.40}, {"measurement": "min fold change, SpotID 48359 RIPK1 (receptor (TNFRSF)-interacting serine-threonine kinase 1)", "setting": "[1]", "result": 1.00}, {"measurement": "min fold change, SpotID 48392 RIPK1 (receptor (TNFRSF)-interacting serine-threonine kinase 1)", "setting": "[1]", "result": 1.00}, {"measurement": "min fold change, SpotID 48395 TNFRSF7 (CD27; tumor necrosis factor receptor superfamily, member 7)", "setting": "[1]", "result": 1.55}, {"measurement": "min fold change, SpotID 48485 UCP1 (uncoupling protein 1 (mitochondrial, proton carrier))", "setting": "[1]", "result": 1.32}, {"measurement": "min fold change, SpotID 48500 RPL13A (ribosomal protein L13a)", "setting": "[1]", "result": 1.06}, {"measurement": "min fold change, SpotID 48594 RPS6KA2 (ribosomal protein S6 kinase, 90 kD, polypeptide 2)", "setting": "[1]", "result": 1.03}, {"measurement": "min fold change, SpotID 48603 TEAD4 (TEA domain family member 4)", "setting": "[1]", "result": 1.72}, {"measurement": "min fold change, SpotID 49330 TNFRSF7 (CD27; tumor necrosis factor receptor superfamily, member 7)", "setting": "[1]", "result": 1.44}, {"measurement": "min fold change, SpotID 49899 WWOX (WW domain containing oxidoreductase)", "setting": "[1]", "result": 1.00}, {"measurement": "min fold change, SpotID 49901 TROAP (trophinin associated protein (tastin))", "setting": "[1]", "result": 1.01}, {"measurement": "min fold change, SpotID 50379 TNFRSF6 (FAS; tumor necrosis factor receptor superfamily, member 6)", "setting": "[1]", "result": 1.38}, {"measurement": "min fold change, SpotID 50428 RPLP0 (ribosomal protein, large, P0)", "setting": "[1]", "result": 1.00}, {"measurement": "min fold change, SpotID 50491 TNFRSF6B (DcR3; tumor necrosis factor receptor superfamily, member 6b, decoy)", "setting": "[1]", "result": 1.17}, {"measurement": "wtd means, SpotID 46796 STC1 (stanniocalcin 1)", "setting": "[1]", "result": 1.47}, {"measurement": "wtd means, SpotID 46950 SERPINA3 (serine (or cysteine) proteinase inhibitor, clade A, member 3)", "setting": "[1]", "result": 1.41}, {"measurement": "wtd means, SpotID 46985 RIPK2 (RIP2, RICK; receptor-interacting serine-threonine kinase 2)", "setting": "[1]", "result": 2.23}, {"measurement": "wtd means, SpotID 47155 TNFAIP6 (tumor necrosis factor, alpha-induced protein 6)", "setting": "[1]", "result": 1.23}, {"measurement": "wtd means, SpotID 47166 SERPINA6 (serine (or cysteine) proteinase inhibitor, clade A, member 6)", "setting": "[1]", "result": 1.66}, {"measurement": "wtd means, SpotID 47193 STAT3 (signal transducer and activator of transcription 3)", "setting": "[1]", "result": 1.64}, {"measurement": "wtd means, SpotID 47332 SERPINB3 (serine (or cysteine) proteinase inhibitor, clade B (ovalbumin), member 3)", "setting": "[1]", "result": 1.33}, {"measurement": "wtd means, SpotID 47444 TKT (transketolase (Wernicke-Korsakoff syndrome))", "setting": "[1]", "result": 0.82}, {"measurement": "wtd means, SpotID 47569 STAT3 (signal transducer and activator of transcription 3)", "setting": "[1]", "result": 2.00}, {"measurement": "wtd means, SpotID 47697 TNFRSF6B (DcR3; tumor necrosis factor receptor superfamily, member 6b, decoy)", "setting": "[1]", "result": 1.84}, {"measurement": "wtd means, SpotID 47698 PTPRJ (protein tyrosine phosphatase, receptor type, J)", "setting": "[1]", "result": 1.38}, {"measurement": "wtd means, SpotID 47987 THBS1 (thrombospondin 1)", "setting": "[1]", "result": 0.68}, {"measurement": "wtd means, SpotID 48234 PTPRZ1 (PTP zeta; protein tyrosine phosphatase, receptor-type, Z polypeptide 1)", "setting": "[1]", "result": 1.77}, {"measurement": "wtd means, SpotID 48239 TLN1 (talin 1)", "setting": "[1]", "result": 1.57}, {"measurement": "wtd means, SpotID 48288 TRAF5 (TNF receptor-associated factor 5)", "setting": "[1]", "result": 1.96}, {"measurement": "wtd means, SpotID 48359 RIPK1 (receptor (TNFRSF)-interacting serine-threonine kinase 1)", "setting": "[1]", "result": 1.34}, {"measurement": "wtd means, SpotID 48392 RIPK1 (receptor (TNFRSF)-interacting serine-threonine kinase 1)", "setting": "[1]", "result": 1.35}, {"measurement": "wtd means, SpotID 48395 TNFRSF7 (CD27; tumor necrosis factor receptor superfamily, member 7)", "setting": "[1]", "result": 1.76}, {"measurement": "wtd means, SpotID 48485 UCP1 (uncoupling protein 1 (mitochondrial, proton carrier))", "setting": "[1]", "result": 1.70}, {"measurement": "wtd means, SpotID 48500 RPL13A (ribosomal protein L13a)", "setting": "[1]", "result": 1.23}, {"measurement": "wtd means, SpotID 48603 TEAD4 (TEA domain family member 4)", "setting": "[1]", "result": 2.19}, {"measurement": "wtd means, SpotID 49330 TNFRSF7 (CD27; tumor necrosis factor receptor superfamily, member 7)", "setting": "[1]", "result": 1.90}, {"measurement": "wtd means, SpotID 49899 WWOX (WW domain containing oxidoreductase)", "setting": "[1]", "result": 1.07}, {"measurement": "wtd means, SpotID 49901 TROAP (trophinin associated protein (tastin))", "setting": "[1]", "result": 0.93}, {"measurement": "wtd means, SpotID 50379 TNFRSF6 (FAS; tumor necrosis factor receptor superfamily, member 6)", "setting": "[1]", "result": 1.57}, {"measurement": "wtd means, SpotID 50428 RPLP0 (ribosomal protein, large, P0)", "setting": "[1]", "result": 0.77}, {"measurement": "wtd means, SpotID 50491 TNFRSF6B (DcR3; tumor necrosis factor receptor superfamily, member 6b, decoy)", "setting": "[1]", "result": 1.60}, {"measurement": "FADS1 expression", "setting": "A549 cells", "result": "not"}]}, {"smiles": "CCC/C=C/C/C=C/C=C/C=N/NN=O", "note": "[triacsin C]", "values": [{"measurement": "Total # Differential Genes (95% confidence)", "result": 228}, {"measurement": "FADS1 expression", "setting": "A549 cells", "result": "induced"}]}]}
